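These data come from cells grown in 96-well plates and exposed to compound for 48 hours at five concentrations. At the GI50, growth is halved.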 Active and inactive are the calls of the source. Cut-off read from the data, not from the text of the source: active = GI50 up to about 1.1 µM and inactive = higher.

Assay in all cases: NCI tumour cell line growth inhibition, 48 h
Test [1] has as its system DLD-1.
Test [2] concerns EKVX.
Test [3] deals with HCC 2998.
In test [4] the test system is HCT-15.
Test [5] has as its system HL-60.
Test [6] relates to Malme-3M.
For test [7], the system named is NCI-H23.
Test [8] concerns NCI-H522.
In test [9] the test system is OVCAR-3.
Test [10] deals with RXF 393.
For test [11], the system named is SK-MEL-2.
Test [12] concerns SK-MEL-5.
Test [13] has as its system SR.
Test [14] concerns SW-620.
In test [15] the test system is TK-10.
For test [16], the system named is U-251.
In test [17] the test system is BT-549.
Test [18] has as its system MDA-N.
For test [19], the system named is NCI/ADR-RES.
Test [20] has as its system T47D.

Regarding `COC(=O)C(=O)Cc1nc2ccccc2s1`, the GI50 is > 100 µM (inactive) in test [1]; > 100 µM (inactive) in test [2]; > 100 µM (inactive) in test [3]; greater than 100 µM in test [4]; > 100 µM (inactive) in test [5]; > 100 µM (inactive) in test [6]. For the same compound, the GI50 in [7], in test [8], in test [9], in [10], in test [11] and in [12] was > 100 µM (inactive) each time. For the same compound, the GI50 in test [13], in [14], in test [15] and in [16] was > 100 µM (inactive) throughout.

With `COC(=O)C(=O)C(C(=O)C=C(C)C)C(=O)C(=O)Nc1cccc(C(C)=O)c1` (configuration not stated), the GI50 in [1] was > 100 µM (inactive); in [2], > 100 µM (inactive); in [3] it was > 100 µM (inactive); in test [4], greater than 100 µM; in [5], > 100 µM (inactive); in test [6] it was > 100 µM (inactive). In addition, the GI50 in test [7], in [8], in test [9], in test [10], in test [11] and in [12] was > 100 µM (inactive) in each case. The GI50 in test [13], in [14], in test [15] and in test [16] was > 100 µM (inactive) in each case.

Regarding `CCNc1nnc(CSc2nc(-c3ccccc3)c(-c3ccccc3)[nH]2)s1`, the GI50 is 22.7 µM (inactive) in [1]; 14.3 µM (inactive) in test [2]; 18.3 µM in test [4]; 15.5 µM (inactive) in test [5]; 21.5 µM (inactive) in [6]; 26.1 µM (inactive) in [7]. For the same compound, the GI50 in test [8] was 19.9 µM (inactive); in test [9], 20.6 µM (inactive); in test [11] it was 20.8 µM (inactive); in test [12], 11.8 µM (inactive); in test [13], 31 µM (inactive); in test [14], 20.2 µM (inactive). The GI50 in test [15] was 18.5 µM (inactive); in [16], 13.7 µM (inactive).

As for `CCCCCCCCC/C=C/C=C/C(=O)NCC(=O)NC1C(O)C(O)C(Nc2ncnc3[nH]cnc23)OC1C(O)CO` (configuration not stated), the GI50 in test [17] was 0.023 µM (active); in test [1], 0.0655 µM (active); in [2] it was 0.126 µM (active); in test [3] it was 0.000509 µM (active); in test [4] it was 0.362 µM; in test [5], 0.00159 µM (active). The GI50 was 0.0306 µM (active) in [18]; 0.00242 µM (active) in test [6]; 0.00869 µM (active) in [7]; 0.00532 µM (active) in test [8]; < 0.01 µM (active) in test [19]; 0.000601 µM (active) in test [9]. Moreover, the GI50 in [10] is 0.00401 µM (active); in test [11], 0.0056 µM (active); in test [12], 0.0137 µM (active); in test [13], 0.0211 µM (active); in test [14] it was 0.00156 µM (active); in test [20], 0.169 µM (active). Besides, the GI50 was 0.00208 µM (active) in test [15] and 0.00149 µM (active) in test [16].

With `O=C1C=CC(S(=O)(=O)C2=C/C(=C/Nc3ccc(Cl)cc3)C(=O)C=C2)=C/C1=C/Nc1ccc(Cl)cc1`, the GI50 in [1], in test [2], in [3], in test [5], in [6] and in [7] was > 100 µM (inactive) in each case. The GI50 in [8], in test [9], in test [10], in test [11], in [12] and in test [13] was > 100 µM (inactive) throughout. Further, the GI50 in [14], in test [15] and in test [16] was > 100 µM (inactive) each time.

`Cc1ccc(S(=O)(=O)N2c3ccccc3[C@H]3CCC=C[C@H]32)cc1`: the GI50 was 8.91 µM (inactive) in [17]; 13.3 µM (inactive) in test [1]; 12.1 µM (inactive) in test [2]; 8.11 µM (inactive) in test [3]; 4.59 µM in [4]; 4.58 µM (inactive) in [5]. Besides, the GI50 in test [18] is 3.06 µM (inactive); in test [6], 4.07 µM (inactive); in [7], 8.28 µM (inactive); in test [8] it was 1.29 µM (inactive); in [9], 4 µM (inactive); in test [10], 3.61 µM (inactive). In addition, the GI50 in test [11] was 4.58 µM (inactive); in [12], 7.4 µM (inactive); in [13], 3.03 µM (inactive); in [14], 4.51 µM (inactive); in test [20], 4.97 µM (inactive); in test [15], 13.7 µM (inactive). In test [16], the GI50 was 4.78 µM (inactive).

As to `CCOc1ccccc1NC(=O)CCc1nnc2s/c(=C\CCc3ccccc3)c(=O)n12`, the GI50 was > 100 µM (inactive) in [1]; > 100 µM (inactive) in [3]; greater than 100 µM in [4]; > 100 µM (inactive) in test [5]; > 100 µM (inactive) in test [6]; > 100 µM (inactive) in test [7]. The GI50 in test [8], in [9], in test [10], in test [11], in [12] and in [13] was > 100 µM (inactive) throughout. Further, the GI50 in [14], in test [15] and in test [16] was > 100 µM (inactive) throughout.

Consider `CN1C(=O)N(C)C(N2CCCC2)c2c1nc1ccccn1c2=O` (configuration not stated), for which the GI50 is 35.3 µM (inactive) in test [1]; 43.3 µM (inactive) in test [2]; 76.9 µM (inactive) in [3]; 56.6 µM in test [4]; 36.8 µM (inactive) in [5]; > 100 µM (inactive) in test [6]. For the same compound, the GI50 in [7] was > 100 µM (inactive); in [8] it was 61 µM (inactive); in test [9] it was 77.3 µM (inactive); in test [10], 49 µM (inactive); in test [11], 29.7 µM (inactive); in test [13], 34.8 µM (inactive). The GI50 was 60.5 µM (inactive) in [14], > 100 µM (inactive) in test [15] and 70.5 µM (inactive) in test [16].

As to `Nc1nc(-c2ccccc2)c(Cl)c(-c2cc(Cl)ccc2O)n1`, the GI50 is 20.4 µM (inactive) in [17]; 26.3 µM (inactive) in test [1]; 28.1 µM (inactive) in test [2]; > 81.1 µM (inactive) in test [3]; 18.4 µM in [4]; > 42.9 µM (inactive) in test [5]. For the same compound, the GI50 in test [18] was > 100 µM (inactive); in test [6] it was > 77.1 µM (inactive); in test [7] it was 15.8 µM (inactive); in test [8] it was 11.6 µM (inactive); in test [9], 16.1 µM (inactive); in [10] it was 13.8 µM (inactive). Further, the GI50 in test [11] is 38.4 µM (inactive); in [12] it was 14.2 µM (inactive); in [13] it was > 100 µM (inactive); in test [14], 44.3 µM (inactive); in [20], 3.15 µM (inactive); in test [15], 15.5 µM (inactive). Moreover, the GI50 in test [16] was 15.2 µM (inactive).

Take `COCN1COCN/C1=N\C#N`: the GI50 in [1] was > 100 µM (inactive); in test [2], > 100 µM (inactive); in [3], > 100 µM (inactive); in test [4], 51.8 µM; in [5], > 100 µM (inactive); in test [6], > 100 µM (inactive). Besides, the GI50 in test [7] is > 100 µM (inactive); in [8], > 100 µM (inactive); in test [9] it was > 100 µM (inactive); in [10], 83.2 µM (inactive); in [11], > 100 µM (inactive); in test [12] it was > 100 µM (inactive). In addition, the GI50 in test [13] is 20.9 µM (inactive); in test [14], 22.5 µM (inactive); in [15] it was > 100 µM (inactive); in test [16] it was > 100 µM (inactive).

As to `CC(=O)OC1C/C(C)=C/[C@H](O)CC(C)/C=C/[C@@]2(C)CCC(C(C)(C)O)C12` (some centres not stated), the GI50 in test [1] is > 100 µM (inactive); in [2] it was > 100 µM (inactive); in test [3] it was > 100 µM (inactive); in [4], greater than 100 µM; in test [5] it was > 100 µM (inactive); in test [6], > 100 µM (inactive). Also, the GI50 in test [7], in test [9], in test [10], in test [11], in [12] and in test [13] was > 100 µM (inactive) in each case. In addition, the GI50 in test [14], in test [15] and in test [16] was > 100 µM (inactive) each time.

As to `CC[C@]1(O)C[C@H]2CN(CCc3c([nH]c4ccccc34)[C@@](C(=O)OC)(c3cc4c(cc3OC)N(C)[C@H]3[C@@](O)(C(=O)OC)[C@H](OC(C)=O)[C@]5(CC)C=CCN6CC[C@]43[C@@H]65)C2)C1`, the GI50 in test [17] is 0.00126 µM (active); in test [1], 0.00433 µM (active); in test [2], 0.0259 µM (active); in [3] it was 0.000959 µM (active); in [4], 0.0241 µM; in test [5], 0.00042 µM (active). Further, the GI50 in test [18] was 0.000476 µM (active); in test [6] it was 0.000557 µM (active); in test [7], 0.000678 µM (active); in test [8] it was 0.000309 µM (active); in test [19] it was 0.115 µM (active); in [9] it was 0.00038 µM (active). Besides, the GI50 in test [11] is 0.000762 µM (active); in [12] it was 0.000354 µM (active); in test [13], 0.000425 µM (active); in test [14] it was 0.000564 µM (active); in test [16] it was 0.000715 µM (active).

(Values after ChEMBL document CHEMBL1201862, “PubChem BioAssay data set” (2004).)
